These results are taken from patent US20150344457A1, “METHODS OF INHIBITING PRMT5” (EPIZYME, INC., priority 2012, published 2015).

Molecules are shown by their SMILES. pIC50: −log10 of the molar value.

In the experiment the target is T1, PRMT5/MEP50 (Homo sapiens, UniProt O14744).
T1 construct: Expressed full-length human Flag-PRMT5/6His-MeP50 protein complex was purified; made in house; host or cells: Spodoptera frugiperda (SF9) insect cells, baculovirus (pDEST8)
T1 sequence (O14744 with tags, fused parts or gaps): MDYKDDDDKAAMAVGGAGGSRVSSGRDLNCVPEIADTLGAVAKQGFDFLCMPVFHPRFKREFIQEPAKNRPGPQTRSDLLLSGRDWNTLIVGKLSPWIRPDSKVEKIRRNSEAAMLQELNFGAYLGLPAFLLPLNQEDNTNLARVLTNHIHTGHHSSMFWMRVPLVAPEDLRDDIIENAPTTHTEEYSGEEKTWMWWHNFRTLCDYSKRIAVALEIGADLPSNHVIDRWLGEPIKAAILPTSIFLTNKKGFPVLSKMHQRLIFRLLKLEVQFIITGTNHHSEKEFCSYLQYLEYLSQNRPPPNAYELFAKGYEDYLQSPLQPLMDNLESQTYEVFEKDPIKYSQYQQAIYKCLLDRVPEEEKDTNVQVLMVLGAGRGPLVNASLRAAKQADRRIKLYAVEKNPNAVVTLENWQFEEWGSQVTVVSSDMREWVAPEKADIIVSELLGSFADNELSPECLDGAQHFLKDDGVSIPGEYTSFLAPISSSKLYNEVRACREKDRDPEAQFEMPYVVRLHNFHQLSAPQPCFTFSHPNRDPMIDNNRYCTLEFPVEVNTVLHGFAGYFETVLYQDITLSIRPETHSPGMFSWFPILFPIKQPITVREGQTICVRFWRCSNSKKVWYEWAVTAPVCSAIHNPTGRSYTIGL
T1 sequence (Q9BQA1 with tags, fused parts or gaps partner limits assumed): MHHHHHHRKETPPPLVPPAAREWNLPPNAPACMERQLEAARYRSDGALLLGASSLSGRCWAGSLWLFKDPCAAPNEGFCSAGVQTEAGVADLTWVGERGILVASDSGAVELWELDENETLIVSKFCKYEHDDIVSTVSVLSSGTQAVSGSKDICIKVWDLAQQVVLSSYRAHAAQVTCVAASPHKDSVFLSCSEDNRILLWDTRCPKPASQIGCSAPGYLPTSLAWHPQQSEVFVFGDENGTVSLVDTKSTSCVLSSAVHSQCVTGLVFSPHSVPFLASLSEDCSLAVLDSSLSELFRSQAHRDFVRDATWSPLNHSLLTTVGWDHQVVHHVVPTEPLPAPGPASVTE
Nature of the experiment: PRMT5 Biochemical Assay (PRMT5/MEP50 enzyme assay on peptide substrate, 3H-SAM Flashplate). Particulars: Table D-2; read-out: Biochemical IC50.
The pIC50 is the IC50 on a negative log10 scale, so that one unit is a factor of ten. As for `OC(COc1cccc(-c2cccc3cccnc23)c1)CN1CCc2ccccc2C1` (stereo not drawn) [Compound D65], the pIC50 was more than 7.00.

For `O=C(Cn1ccc2cnc(-c3ccnc(NCC(O)CN4CCc5ccccc5C4)c3)nc21)N1CCOCC1` (stereo not drawn) [Compound D234], the pIC50 was more than 7.00. Turning to `COc1ccc(-c2cccc(OCC(O)CN3CCc4ccccc4C3)c2)c(C)c1` (stereo not drawn) [Compound D90], the pIC50 was 6.00 to 7.00. In the case of `CN1CCN(C(=O)Cn2cnc3ccc(-c4cccc(OCC(O)CN5CCc6ccccc6C5)c4)cc32)CC1` (stereo not drawn) [Compound D270], the pIC50 is 6.00 to 7.00. As for `OC(CNc1cc(-c2ccc3ncn(C4CCOCC4)c3c2)ccn1)CN1CCc2ccccc2C1` (stereo not drawn) [Compound D251], the pIC50 was more than 7.00. `CN1CCC(n2cnc3ccc(-c4ccnc(NCC(O)CN5CCc6ccccc6C5)c4)cc32)CC1` (stereo not drawn) [Compound D252]: the negative logarithm of the IC50 (pIC50) was more than 7.00. For `Cn1cnc2cc(-c3cc(NCC(O)CN4CCc5ccccc5C4)n[nH]3)ccc21` (stereo not drawn) [Compound D272], the pIC50 is 6.00 to 7.00. As to `Cn1cnc2ccc(-c3ccnc(NCC(O)CN4CCc5ccccc5C4)c3)nc21` (stereo not drawn) [Compound D238], the pIC50 was more than 7.00. As for `CN(CC(O)CN1CCc2ccccc2C1)c1cccc(CNC2CCCC2)c1` (stereo not drawn) [Compound D53], the figure is 6.00 to 7.00; as for `OC(COc1cccc(-c2ncc3ccn(C4CCNCC4)c3n2)c1)CN1CCc2ccccc2C1` (stereo not drawn) [Compound D253], more than 7.00. As for `CS(=O)(=O)c1ccc(-c2cccc(OCC(O)CN3CCc4ccccc4C3)c2)cc1` (stereo not drawn) [Compound D63], the figure is 6.00 to 7.00; as for `CN1CCN(C(=O)Cn2ccc3cnc(-c4cccc(OCC(O)CN5CCc6ccccc6C5)c4)nc32)CC1` (stereo not drawn) [Compound D244], 6.00 to 7.00; as for `O=C(Cn1ccc2cnc(-c3ccnc(NCC(O)CN4CCc5ccccc5C4)c3)nc21)N1CCCCC1` (stereo not drawn) [Compound D246], more than 7.00. As for `CNC(=O)Cn1cnc2ccc(-c3cccc(OCC(O)CN4CCc5ccccc5C4)c3)cc21` (stereo not drawn) [Compound D262], the figure is 6.00 to 7.00. Consider `CC(Oc1cccc(CNC2CCCC2)c1)C(O)CN1CCc2ccccc2C1` (stereo not drawn) [Compound D49], for which the pIC50 is 6.00 to 7.00.

For the compound `CC(=O)N1CCC(n2ccc3cnc(-c4cccc(OCC(O)CN5CCc6ccccc6C5)c4)nc32)CC1` (stereo not drawn) [Compound D243], the negative-log IC50 (pIC50) was 6.00 to 7.00. `OC(CNc1cc(-c2ccc3ncn(C4CCNC4)c3c2)ccn1)CN1CCc2ccccc2C1` (stereo not drawn) [Compound D240]: the pIC50 was more than 7.00. On to `Cn1cnc2ccc(-c3cccc(OCC(O)CN4CCc5ccccc5C4)c3)cc21` (stereo not drawn) [Compound D45], for which the negative-log IC50 (pIC50) is more than 7.00.

In the case of `CNC(=O)Cn1ccc2cnc(-c3ccnc(NCC(O)CN4CCc5ccccc5C4)c3)nc21` (stereo not drawn) [Compound D245], the pIC50 was more than 7.00. With `Cn1ncc2ccc(-c3ccnc(NCC(O)CN4CCc5ccccc5C4)c3)cc21` (stereo not drawn) [Compound D226], the pIC50 is more than 7.00.

With `Cn1cnc2ccc(-c3cc(NCC(O)CN4CCc5ccccc5C4)ccn3)cc21` (stereo not drawn) [Compound D217], the pIC50 was 6.00 to 7.00. As for `OC(COc1cccc(-c2cccc3[nH]cnc23)c1)CN1CCc2ccccc2C1` (stereo not drawn) [Compound D223], the figure is more than 7.00; as for `OC(CNc1cc(-c2ccc3ncn(C4COC4)c3c2)ccn1)CN1CCc2ccccc2C1` (stereo not drawn) [Compound D265], more than 7.00; as for `O=C(Cn1ccc2cnc(-c3cccc(OCC(O)CN4CCc5ccccc5C4)c3)nc21)N1CCOCC1` (stereo not drawn) [Compound D222], 6.00 to 7.00. For `COc1ccc(Cn2cnc3ccc(-c4cccc(OCC(O)CN5CCc6ccccc6C5)c4)cc32)cc1` (stereo not drawn) [Compound D82] the value was 6.00 to 7.00; for `OC(CNc1cccc(CNC2CCCC2)c1)CN1CCc2ccccc2C1` (stereo not drawn) [Compound D39], 6.00 to 7.00; for `Cn1cc2ccc(-c3cc(NCC(O)CN4CCc5ccccc5C4)ncn3)cc2n1` (stereo not drawn) [Compound D224], 6.00 to 7.00.
